Test: mn = molality of the nth substance listed, in mol/kg
Conditions: 100 kPa, Liquid; for mass density: Vibrating tube method; for speed of sound: Frequency=2 MHz, Linear variable-path acoustic interferometer

CCCCn1cc[n+](C)c1.C[C@H](N)C(=O)[O-] [3-butyl-1-methyl-1H-imidazolium L-alaninate] + O
Conditions	mass density [kg/m3]	speed of sound [m/s]
293.15 K, m1 = 0.03078	999.145	–
293.15 K, m1 = 0.04697	999.63	–
293.15 K, m1 = 0.06646	1000.21	–
293.15 K, m1 = 0.08363	1000.72	–
293.15 K, m1 = 0.0978	1001.14	–
293.15 K, m1 = 0.1393	1002.34	–
293.15 K, m1 = 0.1674	1003.15	–
293.15 K, m1 = 0.2011	1004.09	–
293.15 K, m1 = 0.2513	1005.48	–
293.15 K, m1 = 0.2946	1006.67	–
293.15 K, m1 = 0.3312	1007.64	–
293.15 K, m1 = 0.383	1009.05	–
293.15 K, m1 = 0.4337	1010.33	–
298.15 K, m1 = 0.03078	997.956	–
298.15 K, m1 = 0.04697	998.423	–
298.15 K, m1 = 0.06346	–	1507.5
298.15 K, m1 = 0.06646	998.985	–
298.15 K, m1 = 0.08363	999.477	–
298.15 K, m1 = 0.0978	999.884	–
298.15 K, m1 = 0.1393	1001.05	–
298.15 K, m1 = 0.1428	–	1519.5
298.15 K, m1 = 0.1674	1001.83	–
298.15 K, m1 = 0.1848	–	1526.1
298.15 K, m1 = 0.2011	1002.75	–
298.15 K, m1 = 0.2434	–	1534.3
298.15 K, m1 = 0.2513	1004.09	–
298.15 K, m1 = 0.2946	1005.25	–
298.15 K, m1 = 0.2968	–	1541.6
298.15 K, m1 = 0.3312	1006.21	–
298.15 K, m1 = 0.3455	–	1549.5
298.15 K, m1 = 0.383	1007.55	–
298.15 K, m1 = 0.3934	–	1555.4
298.15 K, m1 = 0.4337	1008.88	–
298.15 K, m1 = 0.4399	–	1561.4
298.15 K, m1 = 0.4872	–	1567.8
298.15 K, m1 = 0.546	–	1576.5
303.15 K, m1 = 0.03078	996.541	–
303.15 K, m1 = 0.04697	996.999	–
303.15 K, m1 = 0.06646	997.554	–
303.15 K, m1 = 0.08363	998.04	–
303.15 K, m1 = 0.0978	998.438	–
303.15 K, m1 = 0.1393	999.57	–
303.15 K, m1 = 0.1674	1000.34	–
303.15 K, m1 = 0.2011	1001.23	–
303.15 K, m1 = 0.2513	1002.54	–
303.15 K, m1 = 0.2946	1003.67	–
303.15 K, m1 = 0.3312	1004.62	–
303.15 K, m1 = 0.383	1005.95	–
303.15 K, m1 = 0.4337	1007.21	–
308.15 K, m1 = 0.03124	994.926	–
308.15 K, m1 = 0.05075	995.469	–
308.15 K, m1 = 0.06032	995.732	–
308.15 K, m1 = 0.08315	996.374	–
308.15 K, m1 = 0.09789	996.775	–
308.15 K, m1 = 0.1399	997.892	–
308.15 K, m1 = 0.181	998.999	–
308.15 K, m1 = 0.2108	999.761	–
308.15 K, m1 = 0.2555	1000.94	–
308.15 K, m1 = 0.2996	1002.03	–
308.15 K, m1 = 0.3385	1003.03	–
308.15 K, m1 = 0.3814	1004.06	–
308.15 K, m1 = 0.4337	1005.37	–
313.15 K, m1 = 0.03124	993.094	–
313.15 K, m1 = 0.05075	993.624	–
313.15 K, m1 = 0.06032	993.886	–
313.15 K, m1 = 0.08315	994.504	–
313.15 K, m1 = 0.09789	994.894	–
313.15 K, m1 = 0.1399	996.012	–
313.15 K, m1 = 0.181	997.076	–
313.15 K, m1 = 0.2108	997.849	–
313.15 K, m1 = 0.2555	998.984	–
313.15 K, m1 = 0.2996	1000.07	–
313.15 K, m1 = 0.3385	1001.05	–
313.15 K, m1 = 0.3814	1002.07	–
313.15 K, m1 = 0.4337	1003.34	–

CC(C)C[C@H](N)C(=O)[O-].CCCCn1cc[n+](C)c1 [1-butyl-3-methylimidazolium L-leucinate] + O
Conditions	mass density [kg/m3]	speed of sound [m/s]
293.15 K, m1 = 0.03697	999.215	–
293.15 K, m1 = 0.05641	999.729	–
293.15 K, m1 = 0.07287	1000.17	–
293.15 K, m1 = 0.09146	1000.67	–
293.15 K, m1 = 0.1132	1001.23	–
293.15 K, m1 = 0.1544	1002.32	–
293.15 K, m1 = 0.1911	1003.25	–
293.15 K, m1 = 0.2335	1004.32	–
293.15 K, m1 = 0.2827	1005.52	–
293.15 K, m1 = 0.3424	1007.01	–
293.15 K, m1 = 0.3957	1008.25	–
293.15 K, m1 = 0.4527	1009.6	–
293.15 K, m1 = 0.5127	1010.96	–
298.15 K, m1 = 0.03697	998.03	–
298.15 K, m1 = 0.04773	–	1507.7
298.15 K, m1 = 0.05641	998.525	–
298.15 K, m1 = 0.07287	998.954	–
298.15 K, m1 = 0.09146	999.435	–
298.15 K, m1 = 0.1038	–	1519.1
298.15 K, m1 = 0.1132	999.978	–
298.15 K, m1 = 0.1495	–	1528.5
298.15 K, m1 = 0.1544	1001.01	–
298.15 K, m1 = 0.1911	1001.9	–
298.15 K, m1 = 0.1994	–	1538.3
298.15 K, m1 = 0.2335	1002.93	–
298.15 K, m1 = 0.2447	–	1547.3
298.15 K, m1 = 0.2827	1004.13	–
298.15 K, m1 = 0.2957	–	1557.1
298.15 K, m1 = 0.3424	1005.51	–
298.15 K, m1 = 0.3491	–	1567.5
298.15 K, m1 = 0.3957	1006.7	–
298.15 K, m1 = 0.4035	–	1577.8
298.15 K, m1 = 0.4527	1008.01	–
298.15 K, m1 = 0.4605	–	1588.7
298.15 K, m1 = 0.5127	1009.37	–
298.15 K, m1 = 0.5164	–	1599.4
303.15 K, m1 = 0.03697	996.605	–
303.15 K, m1 = 0.05641	997.088	–
303.15 K, m1 = 0.07287	997.496	–
303.15 K, m1 = 0.09146	997.966	–
303.15 K, m1 = 0.1132	998.492	–
303.15 K, m1 = 0.1544	999.496	–
303.15 K, m1 = 0.1911	1000.35	–
303.15 K, m1 = 0.2335	1001.35	–
303.15 K, m1 = 0.2827	1002.52	–
303.15 K, m1 = 0.3424	1003.84	–
303.15 K, m1 = 0.3957	1005.02	–
303.15 K, m1 = 0.4527	1006.25	–
303.15 K, m1 = 0.5127	1007.54	–
308.15 K, m1 = 0.03562	994.921	–
308.15 K, m1 = 0.05661	995.428	–
308.15 K, m1 = 0.07558	995.879	–
308.15 K, m1 = 0.0961	996.37	–
308.15 K, m1 = 0.114	996.791	–
308.15 K, m1 = 0.1577	997.799	–
308.15 K, m1 = 0.1946	998.637	–
308.15 K, m1 = 0.2469	999.798	–
308.15 K, m1 = 0.2813	1000.57	–
308.15 K, m1 = 0.345	1001.95	–
308.15 K, m1 = 0.3992	1003.13	–
308.15 K, m1 = 0.4555	1004.31	–
308.15 K, m1 = 0.5127	1005.43	–
313.15 K, m1 = 0.03562	993.087	–
313.15 K, m1 = 0.05661	993.589	–
313.15 K, m1 = 0.07558	994.031	–
313.15 K, m1 = 0.0961	994.501	–
313.15 K, m1 = 0.114	994.919	–
313.15 K, m1 = 0.1577	995.899	–
313.15 K, m1 = 0.1946	996.701	–
313.15 K, m1 = 0.2469	997.848	–
313.15 K, m1 = 0.2813	998.573	–
313.15 K, m1 = 0.345	999.913	–
313.15 K, m1 = 0.3992	1001.03	–
313.15 K, m1 = 0.4555	1002.11	–
313.15 K, m1 = 0.5127	1003.22	–
